From patent US11542255B2, “Sulfonylureas and sulfonylthioureas as NLRP3 inhibitors” (Inflazome Limited, priority 2017, dated 2023)
Where a name gives a salt, the structure may show the parent alone.

Legend:
NLRP3 [1] = target: T1, NLRP3 (Homo sapiens, UniProt Q96P20); assay: Human whole blood IL1β release assay (LPS + nigericin, AlphaLisa IL-1β); assay type: cell-based; set-up: Human whole blood in Li-heparin tubes was obtained from healthy donors from a volunteer donor panel; from tissue; host or cells: human whole blood from healthy donors; settings: NLRP3 inhibitory activity, 1 μg/ml LPS, 10 μM nigericin, IL-1β release, read-out: HWB IC50
Protocol: For systemic delivery, the ability to inhibit NLRP3 when the compounds are present within the bloodstream is of great importance. For this reason, the NLRP3 inhibitory activity of a number of compounds in human whole blood was investigated in accordance with the following protocol.
Human whole blood in Li-heparin tubes was obtained from healthy donors from a volunteer donor panel. • 1. Plate out 80 μl of whole blood containing 1 μg/ml of LPS in 96-well, clear bottom cell culture plate (Corning #3585) • 2. Add 10 μl compound (8 points half-log dilution with 10 μM top dose) or vehicle (DMSO 0.1% FAC) to the appropriate wells • 3. Incubate for 3 hrs at 37° C., 5% CO2 • 4. Add 10 μl Nigericin (Sigma #N7143) (10 μM FAC) to all wells • 5. Incubate for 1 hr at 37° C., 5% CO2 • 6. At the end of the incubation period, spin plates at 300×g for 5 mins to pellet cells and remove 20 μl of supernatant and add to 96-well v-bottom plates for IL-1β analysis (note: these plates containing the supernatants can be stored at −80° C. to be analysed at a later date) • 7. IL-1β was measured according to the manufacturer protocol (Perkin Elmer-AlphaLisa IL-1β Kit AL220F-5000) • 8. IC50 data is fitted to a non-linear regression equation (log inhibitor vs response-variable slope 4-parameters)

NLRP3 [2] = target: T1, NLRP3; assay: THP-1 cells pyroptosis assay (LPS + nigericin, resazurin readout); assay type: cell-based; set-up: Seed THP-1 cells (25,000 cells/well) containing 1.0 μg/ml LPS in 40 μl of RPMI medium; host or cells: THP-1 cells; settings: NLRP3 inhibitory activity, 1.0 μg/ml LPS, 5 μM nigericin
Protocol: THP-1 cells (ATCC #TIB-202) were grown in RPMI containing L-glutamine (Gibco #11835) supplemented with 1 mM sodium pyruvate (Sigma #S8636) and penicillin (100 units/ml)/streptomycin (0.1 mg/ml) (Sigma #P4333) in 10% Fetal Bovine Serum (FBS) (Sigma #F0804). The cells were routinely passaged and grown to confluency (˜10^6 cells/ml). On the day of the experiment, THP-1 cells were harvested and resuspended into RPMI medium (without FBS). The cells were then counted and viability (>90%) checked by Trypan blue (Sigma #T8154). Appropriate dilutions were made to give a concentration of 625,000 cells/ml. To this diluted cell solution was added LPS (Sigma #L4524) to give a […] Final Assay Concentration (FAC). 40 μl of the final preparation was aliquoted into each well of a 96-well plate. The plate thus prepared was used for compound screening.
The following method step-by-step assay was followed for compound screening. • 1. Seed THP-1 cells (25,000 cells/well) containing 1.0 μg/ml LPS in 40 μl of RPMI medium (without FBS) in 96-well, black walled, clear bottom cell culture plates coated with poly-D-lysine (VWR #734-0317) • 2. Add 5 μl compound (8 points half-log dilution, with 10 μM top dose) or vehicle (DMSO 0.1% FAC) to the appropriate wells • 3. Incubate for 3 hrs at 37° C. in 5% CO2 • 4. Add 5 μl nigericin (Sigma #N7143) (FAC 5 μM) to all wells • 5. Incubate for 1 hr at 37° C. and 5% CO2 • 6. At the end of the incubation period, spin plates at 300×g for 3 mins and remove supernatant • 7. Then add 50 μl of resazurin (Sigma #R7017) (FAC 100 μM resazurin in RPMI medium without FBS) and incubate plates for a further 1-2 hrs at 37° C. and 5% CO2 • 8. Plates were read in an Envision reader at Ex 560 nm and Em 590 nm • 9. IC50 data is fitted to a non-linear regression equation (log inhibitor vs response-variable slope 4-parameters)

T1 sequence (Q96P20 whole entry): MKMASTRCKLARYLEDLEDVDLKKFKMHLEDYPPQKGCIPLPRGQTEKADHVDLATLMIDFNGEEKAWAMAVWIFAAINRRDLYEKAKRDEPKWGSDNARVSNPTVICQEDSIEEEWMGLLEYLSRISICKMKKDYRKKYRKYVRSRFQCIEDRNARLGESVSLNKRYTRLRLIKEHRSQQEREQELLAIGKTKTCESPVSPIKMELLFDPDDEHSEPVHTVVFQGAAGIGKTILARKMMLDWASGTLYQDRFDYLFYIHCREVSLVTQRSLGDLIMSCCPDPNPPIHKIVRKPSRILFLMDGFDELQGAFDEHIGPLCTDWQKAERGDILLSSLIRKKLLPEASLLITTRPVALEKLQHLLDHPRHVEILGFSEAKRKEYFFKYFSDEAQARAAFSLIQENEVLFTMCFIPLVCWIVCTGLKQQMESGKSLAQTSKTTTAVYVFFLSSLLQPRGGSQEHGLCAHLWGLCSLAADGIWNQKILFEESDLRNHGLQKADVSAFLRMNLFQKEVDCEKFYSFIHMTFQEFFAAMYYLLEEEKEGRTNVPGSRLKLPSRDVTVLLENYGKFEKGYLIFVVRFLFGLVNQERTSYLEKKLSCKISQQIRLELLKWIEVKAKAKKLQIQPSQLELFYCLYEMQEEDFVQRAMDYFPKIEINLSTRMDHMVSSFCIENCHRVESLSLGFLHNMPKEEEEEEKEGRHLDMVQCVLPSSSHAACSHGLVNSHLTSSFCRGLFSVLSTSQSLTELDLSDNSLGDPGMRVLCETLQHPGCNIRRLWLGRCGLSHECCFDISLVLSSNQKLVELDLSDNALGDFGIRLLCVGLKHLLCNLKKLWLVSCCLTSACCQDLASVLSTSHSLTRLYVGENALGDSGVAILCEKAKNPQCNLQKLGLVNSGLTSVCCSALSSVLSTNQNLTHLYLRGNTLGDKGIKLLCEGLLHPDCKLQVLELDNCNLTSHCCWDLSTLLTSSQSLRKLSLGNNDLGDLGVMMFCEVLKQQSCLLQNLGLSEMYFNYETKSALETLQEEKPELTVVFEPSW

Compound | IC50 (NLRP3 [1]) [nM] | IC50 (NLRP3 [2]) [nM]
CC(C)n1nc(S(=O)(=O)NC(=O)Nc2c3c(cc4c2CCC4)CCC3)cc1CN(C)CC(F)F [Example 56, 5-(((2,2-Difluoroethyl)(methyl)amino)methyl)-N-((1,2,3,5,6,7-hexahydro-s-indacen-4-yl)carbamoyl)-1-isopropyl-1H-pyrazole-3-sulfonamide, Sodium Salt] | 3200 to 10000 | 40 to 160
CC(C)c1cc(F)cc(-c2ccnc(C#N)c2)c1NC(=O)NS(=O)(=O)c1cc(CN(C)C)n(C)n1 [Example 36, N-((2-(2-Cyanopyridin-4-yl)-4-fluoro-6-isopropylphenyl)carbamoyl)-5-((dimethylamino)methyl)-1-methyl-1H-pyrazole-3-sulfonamide] | < 400 | 40 to 160
CCC(c1cc(S(=O)(=O)NC(=O)Nc2c3c(cc4c2CCC4)CCC3)nn1C1CC1)N1CCC1 (stereo not drawn) [Example 23, 5-(1-(Azetidin-1-yl)propyl)-1-cyclopropyl-N-((1,2,3,5,6,7-hexahydro-s-indacen-4-yl)carbamoyl)-1H-pyrazole-3-sulfonamide] | < 400 | < 40
COc1cc(-c2ccc3c(c2NC(=O)NS(=O)(=O)c2cc(CN(C)C)n(C(C)C)n2)CCC3)ccn1 [Example 181] | < 400 | < 40
CN(C)Cc1cc(S(=O)(=O)NC(=O)Nc2c3c(cc4c2CCC4)CCC3)nn1CC(C)(C)C [Example 31, 5-((Dimethylamino)methyl)-N-((1,2,3,5,6,7-hexahydro-s-indacen-4-yl)carbamoyl)-1-neopentyl-1H-pyrazole-3-sulfonamide] | 400 to 800 | 40 to 160
Cc1cc(-c2cc(F)cc(C(C)C)c2NC(=O)NS(=O)(=O)c2cc(CN(C)C)n(C)n2)n(C)n1 [Example 40, N-((2-(1,3-Dimethyl-1H-pyrazol-5-yl)-4-fluoro-6-isopropylphenyl)carbamoyl)-5-((dimethylamino)methyl)-1-methyl-1H-pyrazole-3-sulfonamide] | 400 to 800 | 160 to 640
CNCc1cc(S(=O)(=O)NC(=O)Nc2c(-c3ccnc(OC)c3)ccc3c2CCC3)nn1C1CC1 [Example 178] | < 400 | 40 to 160
Cn1nc(S(=O)(=O)NC(=O)Nc2c3c(cc4c2CCC4)CCC3)cc1CN1CC(F)C1 [Example 80, 5-((3-Fluoroazetidin-1-yl)methyl)-N-((1,2,3,5,6,7-hexahydro-s-indacen-4-yl)carbamoyl)-1-methyl-1H-pyrazole-3-sulfonamide] | 1600 to 3200 | 160 to 640
CN1CC(O)(c2cc(S(=O)(=O)NC(=O)Nc3c4c(cc5c3CCC5)CCC4)nn2C)C1 [Example 75, N-((1,2,3,5,6,7-Hexahydro-s-indacen-4-yl)carbamoyl)-5-(3-hydroxy-1-methylazetidin-3-yl)-1-methyl-1H-pyrazole-3-sulfonamide] | 800 to 1600 | 160 to 640
COCCN(CCO)C(=O)c1cc(S(=O)(=O)NC(=O)Nc2c3c(cc4c2CCC4)CCC3)nn1C [Example 102, 3-(N-((1,2,3,5,6,7-Hexahydro-s-indacen-4-yl)carbamoyl)sulfamoyl)-N-(2-hydroxyethyl)-N-(2-methoxyethyl)-1-methyl-1H-pyrazole-5-carboxamide, Partial ammonium Salt] | 400 to 800 | 40 to 160
CCn1nc(S(=O)(=O)NC(=O)Nc2c3c(cc4c2OCC4)CCC3)cc1CN(C)C [Example 185] | 1600 to 3200 | 160 to 640
CC(C)c1cc(F)cc(-c2cccc(C#N)c2)c1NC(=O)NS(=O)(=O)c1cc(CN(C)C)n(C)n1 [Example 46, N-((3′-Cyano-5-fluoro-3-isopropyl-[1,1′-biphenyl]-2-yl)carbamoyl)-5-((dimethylamino)methyl)-1-methyl-1H-pyrazole-3-sulfonamide] | < 400 | 40 to 160
CC(C)n1nc(S(=O)(=O)NC(=O)Nc2c3c(cc4c2CCC4)CCC3)cc1CN(C)CCF [Example 57, 5-(((2-Fluoroethyl)(methyl)amino)methyl)-N-((1,2,3,5,6,7-hexahydro-s-indacen-4-yl)carbamoyl)-1-isopropyl-1H-pyrazole-3-sulfonamide, Sodium Salt] | 1600 to 3200 | < 40
CC(C)c1cc(F)cc(-c2ccccc2)c1NC(=O)NS(=O)(=O)c1cc(CN(C)C)n(C(C)C)n1 [Example 39, 5-((Dimethylamino)methyl)-N-((5-fluoro-3-isopropyl-[1,1′-biphenyl]-2-yl)carbamoyl)-1-isopropyl-1-H-pyrazole-3-sulfonamide] | 1600 to 3200 | 640 to 2560
CCC(c1cc(S(=O)(=O)NC(=O)Nc2c(C(C)C)cc(F)cc2C(C)C)nn1C)N(C)C (stereo not drawn) [Example 65, 5-(1-(Dimethylamino)propyl)-N-((4-fluoro-2,6-diisopropylphenyl)carbamoyl)-1-methyl-1H-pyrazole-3-sulfonamide] | < 400 | < 40
CC(C)c1cc(F)cc(-c2cncnc2)c1NC(=O)NS(=O)(=O)c1cc(C(=O)N(C)C)n(C)n1 [Example 135, 3-(N-((4-Fluoro-2-isopropyl-6-(pyrimidin-5-yl)phenyl)carbamoyl)sulfamoyl)-N,N,1-trimethyl-1H-pyrazole-5-carboxamide, sodium Salt] | < 400 | 160 to 640
CC(C)c1cc(F)cc(-c2cccnc2)c1NC(=O)NS(=O)(=O)c1cc(C(=O)N(C)C)n(C)n1 [Example 134, 3-(N-((4-Fluoro-2-isopropyl-6-(pyridin-3-yl)phenyl)carbamoyl)sulfamoyl)-N,N,1-trimethyl-1H-pyrazole-5-carboxamide, sodium Salt] | < 400 | 40 to 160
CC(C)c1cc(F)cc(C(C)C)c1NC(=O)NS(=O)(=O)c1cc(CN(C)CCO)n(C)n1 [Example 116, N-((4-Fluoro-2,6-diisopropylphenyl)carbamoyl)-5-(((2-hydroxyethyl)(methyl)amino)methyl)-1-methyl-1H-pyrazole-3-sulfonamide] | < 400 | 160 to 640
CCC(c1cc(S(=O)(=O)NC(=O)Nc2c3c(cc4c2CCC4)CCC3)nn1C)N(C)C (single isomer, unassigned; enantiomer 1) [Example 71, 5-(1-(Dimethylamino)propyl)-N-((1,2,3,5,6,7-hexahydro-s-indacen-4-yl)carbamoyl)-1-methyl-1H-pyrazole-3-sulfonamide, Enantiomer 1] | < 400 | < 40
CC(c1cc(S(=O)(=O)NC(=O)Nc2c3c(cc4c2CCC4)CCC3)nn1C)N(C)C (single isomer, unassigned; enantiomer 2) [Example 70, 5-(1-(Dimethylamino)ethyl)-N-((1,2,3,5,6,7-hexahydro-s-indacen-4-yl)carbamoyl)-1-methyl-1H-pyrazole-3-sulfonamide, Enantiomer 2] | < 400 | < 40
CC(C)c1cc(F)cc(-c2ccccc2)c1NC(=O)NS(=O)(=O)c1cc(CN(C)C)n(C)n1 [Example 66, 5-((Dimethylamino)methyl)-N-((5-fluoro-3-isopropyl-[1,1′-biphenyl]-2-yl)carbamoyl)-1-methyl-1H-pyrazole-3-sulfonamide] | 400 to 800 | 160 to 640
